Test results from patent US12642794B2, “Dose regimens for use of LY3154207 in the treatment of dopaminergic CNS disorders” (Eli Lilly and Company, priority 2018, dated 2026).
“Also recorded” adds a separate entry of the source. Like-named read-outs stand apart in the source and are kept apart here.

Assays:
Assay type in all cases: in vivo, human
[1] = HBEC Part B pharmacokinetics, participants with PD; conditions: for Cmax / AUC(0-t) / Tmax: human, oral, 75 mg; for AUC(0-t): read-out: AUC(0-24); for Tmax: read-out: tmax, median
Description: (§1) In this randomized, double-blind, placebo-controlled, multiple ascending dose, parallel-group study, HBEC, healthy subjects (Part A) and participants with PD (Part B) received once-daily doses of LY3154207 (15, 30, 75, or 150 mg in Part A and up to 75 mg in Part B) or placebo for 14 days, as illustrated in FIG. 3.
(§2) Study outcomes included 24-hour ambulatory blood pressure monitoring (ABPM), treatment-emergent adverse events (TEAEs), and PK assessments in both healthy subjects and participants with PD, as well as Movement Disorder Society-United Parkinson's Disease Rating Scale (MDS-UPDRS) assessments to evaluate the impact of LY3154207 on motor function in participants with PD. The objective was to explore the safety, tolerability, and pharmacokinetics (PK) of multiple oral daily dosing of LY3154207 in healthy subjects (Part A) and in participants with PD (Part B).

healthy volunteers = test: HBEA Part B adverse events; conditions: 75 mg, all mild
Source text: (§3) HBEA is a single ascending dose study of a D1 receptor positive allosteric modulator LY3154207 in healthy volunteers. Study HBEA aims to determine the safety, tolerability, and peripheral and central pharmacokinetics (PK) of single ascending doses of LY3154207 in healthy subjects. Study HBEB aims to evaluate the effect of single-dose LY3154207 on sleep latency in sleep-deprived healthy male subjects as measured by a multiple sleep latency test (MSLT). HBEA was a Phase 1, 2-part, randomized, double-blind, placebo-controlled study in healthy males or females. Part A has a 3-period crossover design with 2 alternating, single-dose escalating cohorts, and subjects were randomized to LY3154207 (n=6) or placebo (n=3) in each cohort in each dosing period. Part B has a single-period, single-dose, 2-cohort design with cerebrospinal fluid (CSF) sampling, and subjects were randomized to LY3154207 (n=8) or placebo (n=4) in each cohort.
HBEA Part B is a study of Cerebrospinal fluid (CSF) and plasma pharmacokinetic (PK) profile following a single dose of LY3154207 in healthy volunteers. The objective of the study is to determine the CSF and plasma PK profile of LY3154207 in a single dose study m healthy volunteers. This study consisted of 2 cohorts in a single-dose, single-period, placebo-controlled, randomized, double-blind, parallel-group study. […]

[2] = HBEA plasma pharmacokinetics after single doses
Source text: as §3
This is a phase 1, SAD, crossover design of LY3154207 in healthy subjects conducted in 2 alternating cohorts with dose escalation. Subjects are dosed at 25 mg, 75 mg, 100 mg, 150 mg and 200 mg or placebo. Safety parameters assessed include adverse events (AEs), safety laboratories, vital signs, ambulatory blood pressure monitoring (ABPM) and electrocardiogram (ECG). Subjects provide blood samples after dosing to measure plasma concentrations of LY3154207 for assessment of PK.
HBEA Part B is a study of Cerebrospinal fluid (CSF) and plasma pharmacokinetic (PK) profile following a single dose of LY3154207 in healthy volunteers. The objective of the study is to determine the CSF and plasma PK profile of LY3154207 in a single dose study m healthy volunteers. This study consisted of 2 cohorts in a single-dose, single-period, placebo-controlled, randomized, double-blind, parallel-group study. Subjects were randomized to 25 mg and 75 mg and underwent serial blood and CSF sampling at 2 hours pre-dose and 24 hours post-dose to measure concentrations of LY3154207. Twenty-four subjects enrolled and all completed the study. […] Concentrations of LY3154207 in CSF were detectable up to 8 h after a dose of 25 mg and up to 24 hours after a dose of 75 mg. At each dose about 1% of the total LY3154207 exposure in plasma was available in CSF. At 25 mg and 75 mg, central penetration of LY3154207 was confirmed by measurement of LY3154207 in CSF supporting its use according to the dosing regimens of the present invention in dopaminergic CNS disorders.

participants with PD [3] = test: HBEC motor examination subscore, MDS-UPDRS Part III; conditions: 14-day treatment, 75 mg and 75 mg titration
Description: FIG. 4: Study HBEC, motor symptoms in PD patients in 14-day treatment with LY3154207. Participants with PD, treated with LY3154207, motor examination subscores compared to those treated with placebo, as measured by MDS-UPDRS Part III. Cohort 5 (LY 75 mg), Cohort 6 (LY 75 mg titration) (Participants with PD in Cohort 6 received 15 mg on Days 1-3 and 30 mg on Days 4-6), Cohort 5/6 (PBO).
as §2

participants with PD [4] = test: HBEC Part B multiple dose study: TEAEs, vital signs, tolerability
Description: FIG. 3: Design of the study HBEC, a multiple ascending dose study of LY3154207, a randomized, double-blind, placebo-controlled, multiple ascending dose, parallel-group study, of healthy subjects (Part A) and participants with PD (Part B) who received once-daily doses of LY3154207 (15, 30, 75, or 150 mg in Part A and up to 75 mg in Part B) or placebo for 14 days. aEach ascending dose cohort commenced only after review of the safety data to at least Day 7 from the previous cohort. bParticipants with PD in Cohort 6 received titrated doses to determine the effect of this dosing schedule (i.e., Days 1-3:15 mg: Days 4-6:30 mg; and Days 7-14:75 mg) on cardiovascular effects. Note: All cohorts were dosed for 14 days. CRU=clinical research unit: LY=LY3154207; PBO=placebo: PD=Parkinson's disease: R=randomized.
as §1, §2

[5] = in vivo, participants with PD, Day 14, LY 75 mg (N = 8), geometric mean
[6] = in vivo, participants with PD, Day 14, LY 75 mg Titration (N = 8), geometric mean
[7] = participants with PD, LY 75 mg (N = 8), geometric mean
[8] = participants with PD receiving LY3154207
[9] = participants with PD, LY 75 mg Titration (Days 1-3: 15 mg; Days 4-6: 30 mg; Days 7-14: 75 mg) (N = 8)
[10] = participants with PD, LY 75 mg once daily for 14 days (N = 9)

increase in AUC (0-24) in participants with PD versus healthy subjects ([1]; Day 14 after 75 mg): 42% | increase in Cmax in participants with PD versus healthy subjects ([1]; Day 14 after 75 mg): 25% | Cmax [1, 5]: 335 ng/mL | AUC(0-t) [1, 5]: 3050 ng·h/mL | Tmax ([1]; in vivo, participants with PD, Day 14, LY 75 mg (N = 8)): 2 h | Cmax [1, 6]: 400 ng/mL | AUC(0-t) [1, 6]: 3680 ng·h/mL | Tmax ([1]; in vivo, participants with PD, Day 14, LY 75 mg Titration (N = 8)): 2.5 h | exposure in participants with PD compared with healthy subjects ([1]; in vivo): slight increase | accumulation upon repeated dosing ([1]; participants with PD): minimal accumulation | CLss/F ([1]; participants with PD, Day 14, LY 75 mg (N = 8), geometric mean): 24.6 L/h | CLss/F ([1]; participants with PD, Day 14, LY 75 mg Titration (N = 8), geometric mean): 20.4 L/h | RAAUC(0-24) (accumulation ratio Day 14:Day 1) [1, 7]: 1.06 | RACmax (accumulation ratio Day 14:Day 1) [1, 7]: 1.05 | apparent clearance (CL/F) ([2]; across doses): 19 to 25 L/h | Tmax ([2]; both sexes, human, plasma, single doses, read-out: median tmax): 2 to 3 h | half-life ([2]; both sexes, human, plasma, single doses, read-out: terminal half-life (t1/2) (converted)): ~12 h | renal elimination ([2]; in vivo): negligible renal elimination | administered dose excreted in urine ([2]; single doses): 0.02%
SMILES: C[C@H]1c2cccc(CCC(C)(C)O)c2C[C@H](CO)N1C(=O)Cc1c(Cl)cccc1Cl [LY3154207]
subjects with treatment-related AEs (healthy volunteers): 25% | linearity of PK ([2]; plasma, 25-200 mg): linear PK profile; also recorded: linear plasma PK | dose proportionality of Cmax and AUC ([2]; plasma, 25 to 200 mg): proportional with dose; also recorded: increased in proportion to LY3154207 dose | motor examination subscore, MDS-UPDRS Part III, compared to placebo (participants with PD [3]): more consistent improvement | severe or serious TEAEs (participants with PD [4]; participants with PD): no severe or serious TEAEs | headache, treatment-related AE (participants with PD [4]; [8]): 1 n | hypoesthesia, treatment-related AE (participants with PD [4]; [8]): 1 n | upper abdominal pain, treatment-related AE (participants with PD [4]; [8]): 1 n | visual hallucination, treatment-related AE (participants with PD [4]; [8]): 1 n | Number of TEAEs (participants with PD [4]; [9]): 7 | Number of TEAEs, Mild (participants with PD [4]; [9]): 6 | Number of TEAEs, Moderate (participants with PD [4]; [9]): 1 | Subjects with ≥1 TEAE, (%) (participants with PD [4]; [9]): (62.5) % | Number of TEAEs (participants with PD [4]; [10]): 14 | Number of TEAEs, Mild (participants with PD [4]; [10]): 13 | Number of TEAEs, Moderate (participants with PD [4]; [10]): 1 | Subjects with ≥1 TEAE, (%) (participants with PD [4]; [10]): (66.7) % | course of the initial increase in SBP, DBP, and pulse rate (participants with PD [4]; participants with PD, repeated dosing): accommodation effect was less notable | tolerability of multiple once-daily doses (participants with PD [4]; up to 75 mg in participants with PD): well tolerated
